{"source": "patent US11300570B2", "about": "“Therapeutic and diagnostic methods for cancer” (Genentech, Inc., priority 2016, dated 2022)", "system": "locally advanced or metastatic NSCLC (PD-L1-selected patients)", "assay": "BIRCH and FIR Phase II single-arm trials of atezolizumab monotherapy in PD-L1-selected NSCLC, efficacy by tTMB", "assay_type": "in vivo, human", "conditions": "for Median OS / Median PFS: 1L BIRCH/FIR; for ORR / Odds Ratio for Response / OS HR (95% CI) / PFS HR (95% CI): BIRCH and FIR 2L+; for Odds Ratio for Response / OS HR (95% CI) / PFS HR (95% CI): TMB-high vs TMB-low; for OS HR (95% CI) / PFS HR (95% CI): unadjusted, unstratified", "experimental": "The correlation between the level of somatic mutations detected in a tumor tissue sample (e.g., mutation load, also referred to as tissue tumor mutational burden (tTMB)) and PD-L1 expression and their independent contribution to treatment with PD-L1 axis binding antagonists in non-small cell lung cancer (NSCLC) tumors was evaluated.\nPre-treatment tumor specimens from 465 patients with 2 L+ NSCLC who were enrolled in one of the three Phase II clinical trials (BIRCH, FIR, and POPLAR; Table 4 and 5), in which atezolizumab was administered as a monotherapy, were evaluated for tissue tumor mutational burden (tTMB). Tumor specimens from 1 L NSCLC patients were also evaluated in the BIRCH and FIR studies.\nThe efficacy analyses of the BIRCH population excluded these two untreated patients. Patients were eligible for enrollment in the BIRCH study if they had locally advanced or metastatic (e.g., stage IIIB, stage IV, or recurrent) NSCLC; a PD-L1-positive tumor status determined by an immunohistochemistry (IHC) assay based on PD-L1 expression in tumor infiltrating immune cells (IC) and/or tumor cells (TC); measurable disease, as defined by RECIST v1.1; and an Eastern Cooperative Oncology Group (ECOG) performance status of 0 or 1. Patients received atezolizumab at a dose of 1200 mg intravenously every three weeks for as long as patients were experiencing clinical benefit, i.e., in the absence of unacceptable toxicity or symptomatic deterioration attributed to disease progression.\nThe FIR (Clinical Trial ID No.: NCT01846416) patient population evaluated for tTMB consisted of 33 patients. Patients were eligible for enrollment in the FIR study if they had stage IIIB (e.g., not eligible for treatment by definitive chemoradiotherapy), stage IV, or recurrent NSCLC; a PD-L1-positive status as determined by an IHC assay; an ECOG performance status of 0 or 1; a life expectancy 12 weeks; measurable disease, as defined by RECIST v1.1; and adequate hematologic and end organ function. Patients received an intravenous dose of 1200 mg atezolizumab on Day 1 of each 21-day cycle until disease progression.\nData from the single-arm, PD-L1-selected trials BIRCH and FIR were combined and analyzed to examine the association between tTMB and clinical outcomes among PD-L1-selected patients. Data from the randomized, PD-L1-unselected trial, POPLAR, were analyzed separately and treatment effects between the atezolizumab- and docetaxel-treatment arms were compared.\nTo identify somatic mutations, tumor samples (e.g., archival tumor samples) were processed as described in Frampton et al. Nat. Biotechnol. 31:1023-31, 2013. Sequencing libraries were constructed to sequence and analyze samples. In addition to standard mutation processing, a mutation load estimation algorithm was applied that, based on the number of somatic mutations and/or rearrangements detected in Table 1 or Table 2, respectively, extrapolates to the exome or the genome as a whole. For purposes of mutation load estimation, all coding short variant alterations, base substitutions, and indels detected in the genes listed in Table 1 and Table 2 were counted. Further, all coding alterations (base substitutions and indels), including synonymous alterations, with the exception of known oncogenic driver mutations, in the genes listed in Table 1 and Table 2 were counted. […]", "key": {"[1]": {"conditions": "BEP (evaluable for TMB) (n = 102)"}}}
{"substance": "atezolizumab", "values": [{"measurement": "Median OS", "setting": "[1]", "result": 20.1, "unit": "months"}, {"measurement": "Median PFS", "setting": "[1]", "result": 7.0, "unit": "months"}, {"measurement": "Median OS", "setting": "ITT (n = 173)", "result": 20.1, "unit": "months"}, {"measurement": "Median PFS", "setting": "ITT (n = 173)", "result": 6.9, "unit": "months"}, {"measurement": "Median PFS", "setting": "tTMB score <9 mut/Mb (n = 45)", "result": 4, "unit": "months"}, {"measurement": "Median OS", "setting": "tTMB score <16 mut/Mb (n = 85)", "result": 20.1, "unit": "months"}, {"measurement": "Median PFS", "setting": "tTMB score <16 mut/Mb (n = 85)", "result": 6, "unit": "months"}, {"measurement": "Median OS", "setting": "tTMB score ≥9 mut/Mb (n = 57)", "result": 20.1, "unit": "months"}, {"measurement": "Median PFS", "setting": "tTMB score ≥9 mut/Mb (n = 57)", "result": 8.3, "unit": "months"}, {"measurement": "Median PFS", "setting": "tTMB score ≥16 mut/Mb (n = 17)", "result": 11.1, "unit": "months"}, {"measurement": "ORR", "setting": "TMB-high (at or above 25% tTMB quantile cutoff)", "result": 22, "unit": "%"}, {"measurement": "ORR", "setting": "TMB-high (at or above 50% (median) tTMB cutoff)", "result": 25, "unit": "%"}, {"measurement": "ORR", "setting": "TMB-high (at or above 75% tTMB quantile cutoff)", "result": 29, "unit": "%"}, {"measurement": "Odds Ratio for Response", "setting": "25% tTMB cutoff", "result": 2.14}, {"measurement": "OS HR (95% CI)", "setting": "25% tTMB cutoff", "result": "0.92 (0.64, 1.30)"}, {"measurement": "PFS HR (95% CI)", "setting": "25% tTMB cutoff", "result": "0.79 (0.60, 1.00)"}, {"measurement": "Odds Ratio for Response", "setting": "50% (median) tTMB cutoff", "result": 2.11}, {"measurement": "OS HR (95% CI)", "setting": "50% (median) tTMB cutoff", "result": "0.87 (0.65, 1.16)"}, {"measurement": "PFS HR (95% CI)", "setting": "50% (median) tTMB cutoff", "result": "0.64 (0.50, 0.80)"}, {"measurement": "Odds Ratio for Response", "setting": "75% tTMB cutoff", "result": 2.20}, {"measurement": "OS HR (95% CI)", "setting": "75% tTMB cutoff", "result": "0.70 (0.49, 1.00)"}, {"measurement": "PFS HR (95% CI)", "setting": "75% tTMB cutoff", "result": "0.5 (0.38, 0.67)"}, {"measurement": "ORR", "setting": "TMB-low (below 25% tTMB quantile cutoff)", "result": 11, "unit": "%"}, {"measurement": "ORR", "setting": "TMB-low (below 50% (median) tTMB cutoff)", "result": 14, "unit": "%"}, {"measurement": "ORR", "setting": "TMB-low (below 75% tTMB quantile cutoff)", "result": 16, "unit": "%"}, {"measurement": "association of tissue TMB with efficacy", "setting": "PD-L1-selected 2L+ patients with NSCLC, BIRCH and FIR", "result": "associated with improved efficacy"}, {"measurement": "association of tTMB with efficacy", "setting": "all lines evaluated (1L and 2L+) in FIR and BIRCH", "result": "associated with improved efficacy"}]}
